Assays:
[1] = destruction of 2-methylisothiazolin-3-one in an aqueous emulsion paint using sodium thiosulfate; format: physicochemical
Text: A drawback, however, is that according to the method described, the isothiazolinones, and especially the MIT, are not destroyed quantitatively or irreversibly, and so are still always present in the products and derivatives, and may still as before cause problems to persons reacting allergically, and/or may give rise to contact eczemas or aerogenic contact eczemas in persons having a high degree of sensitization.

[2] = system: microorganisms introduced via the individual components of the paint; assay: microbiological investigations of the preserved emulsion paint; format: cell-based; details: 20 ppm of 5-chloro-2-methylisothiazolin-3-one (2-methylisothiazolin-3-one content <1 wt %) in water-based emulsion paint; growth detectable in individual components
Text: Added to a preservative-free styrene-acrylate dispersion were 20 ppm of 5-chloro-2-methylisothiazolin-3-one, having a 2-methylisothiazolin-3-one content of <1 wt %. The styrene-acrylate dispersion thus preserved was then used for producing a water-based emulsion paint. The composition of the paint produced was as follows: • 25.7 wt % water • 0.2 wt % acrylate-based wetting and dispersing agent • 0.2 wt % mineral oil-based defoamer • 2.0 wt % water softener (sodium polyphosphate) • 0.2 wt % ammonia • 4.0 wt % titanium oxide (pigment) • 51.0 wt % calcium carbonate (filler) • 5.0 wt % talc (filler) • 0.4 wt %% cellulose ether • 2.0 wt % organic solvent for lowering the minimum film-forming temperature • 9.0 wt % the styrene-acrylate dispersion preserved with 20 ppm of 5-chloro-2-methylisothiazolin-3-one • 20 ppm 5-chloro-2-methylisothiazolin-3-one, having a 2-methylisothiazolin-3-one content of <1 wt %

[3] = decomposition of 5-chloro-2-methylisothiazolin-3-one in the emulsion paint by cysteine, HPLC; format: physicochemical; details: after 3 hours, addition of 50 ppm of cysteine based on the emulsion paint
Text: In order, from the emulsion paint, which contained significant quantities of 5-chloro-2-methylisothiazolin-3-one, to produce a paint unobjectionable for allergics in relation to 5-chloro-2-methylisothiazolin-3-one and 2-methylisothiazolin-3-one present therein, to produce, these isothiazolin-3-ones were decomposed by addition of 50 ppm of cysteine, based on the emulsion paint.

Row | SMILES | destruction of 2-methylisothiazolin-3-one [1] | microbial growth in the emulsion paint [2] | detectability of 5-chloro-2-methylisothiazolin-3-one in the emulsion paint by HPLC [3]
1 | Cn1sccc1=O [2-methylisothiazolin-3-one] | destroyed neither quantitatively nor irreversibly |  | 
2 | Cn1sc(Cl)cc1=O [5-chloro-2-methylisothiazolin-3-one] |  | no microbial growth | no longer detectable

From patent publication US20200123396A1, “PRODUCTS PRESERVED WITH 5-CHLORO-2-METHYL-4-ISOTHIAZOLIN-3-ONE” (THOR GMBH, priority 2014, published 2020)
